Test results from patent publication US20180348222A1, “BUFADIENOLIDE FOR TREATMENT OF NON-SMALL CELL LUNG CANCER” (priority 2017, published 2018).

Assays:
[1] = test system: EGFR phosphorylation of tyrosine residue 1173 in H1975; experiment: Western blot of EGFR activation; format: cell-based; details: H1975, 18 hours
Method: (§1) After incubation A549, H1975 and HCC827 cells with Proscillaridin A for 18 hours, cells were harvested and washed with cold 1× PBS. Then, cells were lysed with ice-cold RIPA lysis buffer with protease and phosphatase inhibitors added to extract the cell protein extraction. The supernatants were collected by centrifugation at 12,000 g, for 5 min. The quantitation of total protein extraction was measured by Bio-Rad DCTM protein assay kit (Bio-Rad, Philadelphia, Pa., USA). Then 35 μg of protein were loaded and electrophoretically separated on 8% SDS-PAGE gel and then transferred to Nitrocellulose (NC) membrane.
(§2) Membranes were blocked with 5% non-fat milk and […] containing 0.1% Tween-20 (TBST) for 1 h at room temperature. After 1 h, membranes were incubated with primary antibodies (1:1000 dilution) against β-actin, GAPDH, total/phosphor-EGFR, total/phosphor-AKT, total/phosphor-JNK, total/phosphor-AMPK, total/phosphor-ACC, phosphor-mTOR, IKK-α, Iκ-Bα, phosphor-NFκB-P65, Caspase-9, Caspase-7, BAX and Bcl-2 at 4° C. with gently shaking overnight. Membranes were washed with TBST for 3 times (5 min/time), and incubated with secondary fluorescent antibody (1:10000 dilutions) for 1 h at room temperature. Rewashing with TBST for 3 times (15 min/time), the stripes were visualized by LI-COR Odessy scanner (Belfast, Me., USA).

[2] = test system: EGFR phosphorylation of tyrosine residue 1173 in HCC827; experiment: Western blot of EGFR activation; format: cell-based; details: HCC827, 18 hours
Method: as §1, §2

[3] = test system: PARP, Caspase-7, Caspase-9, AKT, BAX, Bcl-2; experiment: Western blot of apoptosis-related proteins; format: cell-based; details: A549, H1975, HCC827
Method: as §1, §2

[4] = test system: acetyl-CoA carboxylase (ACC) phosphorylation; experiment: Western blot; format: cell-based; details: FIG. 8A
Method: as §1, §2

mTOR phosphorylation = experiment: Western blot; format: cell-based; details: FIG. 8A
Method: as §1, §2

AMPK phosphorylation = experiment: Western blot; format: cell-based; details: FIG. 8A
Method: as §1, §2

NF-κB pathway = experiment: Western blot; format: cell-based; details: dose-dependent
Method: as §1, §2

JNK phosphorylation = experiment: Western blot; format: cell-based; details: FIG. 8A
Method: as §1, §2

Na^+/K^+ ATPase = Na^+/K^+ ATPase enzyme activity assay; format: biochemical; details: in vitro, enzyme from porcine cerebral cortex
Method: The enzymatic activity of Na^+/K^+ ATPase (purchased from Sigma as lyophilized powder from porcine cerebral cortex) was measured by colorimetric quantification of P, released during ATP hydrolysis. A previously published procedure was adapted with some modifications. Begin with incubating 10 μl of Na^+/K^+ ATPase (600 units/m1) with 2.5 μl of KCl/NaCl solution (45 mM KCl and 2 M NaCl) at 37° C. for 30 min with either 5 μl of DMSO (control) or 5 μl of P.A (in different indicated concentrations) in 67.5 μl of buffer (24 mM Tric HCl buffer with 0.68 mM ethylenediaminetetraacetic acid and 6.0 mM magnesium chloride, pH 7.8). ATP (5 μl of 80 mM solution) was then added, and the reaction mixture was incubated again at 37° C. for 15 min. Trichloroacetic acid (30 μl of 100% w/v) was then added to the reaction mixture followed by centrifugation for 5 min. Supernatant (50 μl aliquot) was transferred to a 96 well plated containing 100 μl of Taussky-Shorr reagent. The absorbance at 660 nm was read after incubation at RT for 5 min.

A549 and H1975 cells [5] = experiment: Measurement of intracellular calcium (Fluo-3); format: cell-based; details: A549 and H1975, after 6 h
Method: Changes in intracellular free calcium were measured by a fluorescent dye, Fluo-3 as previously described. Briefly, A549 and H1975 cells were washed twice with culture media after Proscillaridin A treatment (6.25-25 nM) for 6 hours. Then cell suspensions were incubated with 5 μM Fluo-3 at 37° C. for 30 min. After the cells were washed twice with HBSS, the re-suspended cell samples were then subjected to FACS analysis. At least 10,000 events were analyzed.

A549 cells [6] = experiment: MTT cytotoxicity assay; format: cell-based; details: A549, EGFR wild type, 24 h
Method: (§3) Cells were seeded in a 96-well microplate with 3000-5000 cells/well confluence, and put into the incubator overnight for cells adhesion. Different concentrations of drug Proscillaridin A were added with Dimethyl sulfoxide (DMSO) as vehicle control. The microplates were incubated for further 24 h. Each dosage was repeated in triplicate. 10 μL of MTT (5 mg/mL) solution was added to each well. The plate was placed back into the incubator for 4 h. After that, 100 μL of resolved solution (10% SDS and 0.1 mM HCL) was added to each well.
(§4) Before dissolving the formazan crystals, the microplate was put back into the incubator for another 4 h. The absorbance of the plate was measured at 570 nm with reference 650 nm by a microplate reader (Tecan, Morrisville, N.C., USA). Cell viability was calculated by percentages of the absorbance of the treatment group divided by the absorbance of untreated group. At least three independent experiments were performed for data analysis and presentation.

H358 cells = experiment: MTT cytotoxicity assay; format: cell-based; details: H358, KRAS, 24 h
Method: as §3, §4

HCC78 cells = experiment: MTT cytotoxicity assay; format: cell-based; details: HCC78, SLC3482-ROS, 24 h
Method: as §3, §4

[7] = test system: CCD19-LU normal lung fibroblast cell line; experiment: MTT cytotoxicity assay; format: cell-based
Method: as §3, §4

H1975 cells [8] = experiment: MTT cytotoxicity assay; format: cell-based; details: H1975, EGFR double mutant, 24 h
Method: as §3, §4

H2228 cells = experiment: MTT cytotoxicity assay; format: cell-based; details: H2228, EML4-ALK, 24 h
Method: as §3, §4

HCC827 cells [9] = experiment: MTT cytotoxicity assay; format: cell-based; details: HCC827, EGFR exon 19 deletion, 24 h
Method: as §3, §4

A549 cells [10] = experiment: Apoptosis assay (Annexin-V/PI flow cytometry); format: cell-based
Method: (§5) A549, H1975 and HCC827 cells (1×10^5 cells /well) were seeded in a 6 -well plate for 24 h, and treated with the indicated concentrations of Proscillaridin A for an additional 24 h at 37° C. After indicated hours, the cells were washed by ice-cold 1×PBS once and harvested by trypsination. Then cell were centrifuged, collected and resuspended in ice-cold 1×PBS. After removing the supernatants, cell pellets were re-suspended in 100 μL 1× Annexin-binding buffer. The cells were then double-stained with Annexin-V FITC and PI (100 μg/mL) of 2 μL respectively for 15 min at room temperature in dark. After that, 300 μL 1× Annexin-binding buffer was added. Apoptotic cells were quantitatively counted by a BD Aria III Flow Cytometer (BD Biosciences, San Jose, Calif., USA).

H1975 cells [11] = experiment: Apoptosis assay (Annexin-V/PI flow cytometry); format: cell-based
Method: as §5

HCC827 cells [12] = experiment: Apoptosis assay (Annexin-V/PI flow cytometry); format: cell-based; details: HCC827, 50 nM, 24 h
Method: as §5

DR4 expression = experiment: Regular and quantitative RT-PCR; format: cell-based; details: 12 h treatment
Method: Cells were incubated with Proscillaridin A for 12 hours. Total RNA was then extracted from treated cells using a TRIzol reagent (Invitrogen, Carlsbad, Calif., USA) following the manufacturer's instructions and was used to prepare cDNA. Quantitative real-time PCR was performed with High-productivity Real-Time quantitative PCR ViiA™7 (Life Technologies).
The glyceraldehyde […] dehydrogenase (GAPDH) gene was used as the reference gene. All data were means of fold change of triplicate analysis and normalized with those of GAPDH.

[13] = test system: A549, H1975 and HCC827 cells; experiment: Colony-formation assay; format: cell-based; details: all three cell lines
Method: Colony-forming assay was performed as previously described. Briefly, About 300 cells were plated into every well of 6 -well plate with 2 ml of culture medium and grown at 37° C. with 5% CO2. After 48 h culture for cell adherence to the plate, rinsed with fresh medium, Proscillaridin A (with indicated different dosages) was added to the medium. 48 h later, the cells were washed twice with PBS and then incubated in drug-free medium. The medium was changed every 5 days. After culturing for additional 10 to 14 days, the medium was discarded and each dish was washed twice with PBS carefully. The cells were fixed with 3.7% Paraformaldehyde for 20 min and 0.2% crystal violet solution in 10% ethanol for 10 min. Excess stain was removed by washing repeatedly with PBS. All the procedures were done at room temperature. The plates can be stored at room temperature or at +4° C. for several months without any visible fading of the dye.

A549 and H1975 cells [14] = experiment: Apoptosis assay, co-treatment with Proscillaridin A; format: cell-based
Method: as §5

Proscillaridin A
EGFR activation (phosphorylation of tyrosine residue 1173) [1]: inhibited the EGFR activation
EGFR activation (phosphorylation of tyrosine residue 1173) [2]: inhibited the EGFR activation
AKT activation [3]: inhibited
BAX level [3]: up-regulated
Bcl-2 level [3]: down-regulated
PARP, Caspase-7 and Caspase-9 cleavage [3]: cleaved and activated
phosphorylation of ACC [4]: significantly induced the phosphorylation
phosphorylation of mTOR (mTOR phosphorylation): inhibited the phosphorylation of mTOR
phosphorylation of AMPK (AMPK phosphorylation): significantly induced the phosphorylation of AMPK
NF-κB pathway activation (NF-κB pathway): significantly inhibited
phosphorylation of JNK (JNK phosphorylation): significantly activated the phosphorylation of JNK
IC50 (Na^+/K^+ ATPase): 0.83 ± 0.3 nM
cellular Ca^2+ level (A549 and H1975 cells [5]): remarkably increases the in vitro Ca^2+ level
CC50 (A549 cells [6]): 14 ± 2.8 nM
CC50 (H358 cells): 25.8 ± 4.9 nM
CC50 (HCC78 cells): 37.6 ± 9.9 nM
CC50 ([7]; CCD19-LU normal fibroblast cell, 24 h): > 400 nM
inhibition of cell proliferation in normal lung fibroblast cells ([7]; CCD19-LU, 30-folds higher concentrations of the CC50 in EGFR-dependent NSCLC cells): no significant inhibitory effect
CC50 (H1975 cells [8]): 15 ± 3.6 nM
CC50 (H2228 cells): 23.6 ± 5.4 nM
CC50 (HCC827 cells [9]): 13.9 ± 1.8 nM
apoptotic cells (A549 cells [10]; A549, 50 nM, 24 h): about 70%
concentration at which significant induction of apoptosis starts (A549 cells [10]; A549, 24 h): 12.5 nM
apoptotic cells (H1975 cells [11]; H1975, 50 nM, 24 h): about 70%
concentration at which significant induction of apoptosis starts (H1975 cells [11]; H1975, 24 h): 25 nM
increase of apoptosis (HCC827 cells [12]): about 10%
DR4 gene expression (DR4 expression): significantly elevated
clonogenic growth (colony formation) [13]: can suppress clonogenic growth

c1cc(-c2cnn3cc(-c4ccc(OCCN5CCCCC5)cc4)cnc23)ccn1 [Compound C]
apoptotic cells after co-treatment with Proscillaridin A (A549 and H1975 cells [14]; AMPK inhibitor co-treatment, A549 and H1975): partially weakened the apoptotic cells

CC(=O)OCOC(=O)CN(CC(=O)OCOC(C)=O)c1ccccc1OCCOc1ccccc1N(CC(=O)OCOC(C)=O)CC(=O)OCOC(C)=O [BAPTA/AM]
apoptotic cells after co-treatment with Proscillaridin A (A549 and H1975 cells [14]; Ca^2+ chelator co-treatment, flow cytometry): significant decrease of apoptotic cells
